In experiment [1] the test system is membrane capacitance of NIH 3T3 cells (balance between exocytosis and endocytosis). In words: Cell capacitance in whole cell patch-clamp. To be noted: 10th minute over 1st minute of whole cell recording; peptides 1 mM; paired t-test. The experiment is classed as cell-based. How it is done:
Cells were patched with pipettes made of borosilicate glass (GC150F, Harvard Apparatus) and pulled with a vertical Narishige puller (World Precision Instruments). The solution contained (in mM): 130–140 KCH3SO3, 1 EGTA, 0.1 CaCl2, 10–20 HEPES, 4 ATP (sodium or magnesium salt), 0.4 Na-GTP (or GTPγS when indicated), 5 phosphocreatine and 3 sodium ascorbate. pH was adjusted to 7.2 using KOH and osmolarity to ~300 mOsm L^−1. Sodium ascorbate was omitted in earlier recordings but was added for better stability. Chloride ions either came from 2 mM KCl, 10 mM NaCl or 4 mM MgCl2 (when Na-ATP was used) in various trials. All salts were purchased from Sigma-Aldrich. Cells were voltage-clamped at −60 mV with an EPC10 amplifier (HEKA) with series resistance and cell capacitance estimation every 4 s in the whole cell mode. The digital triggers of the amplifier were used to drive the electrovalves for pH changes. Cell viability and dialysis efficiency were made sure of by monitoring […] throughout the recording using the Patchmaster software (HEKA): series resistance should remain below 10 MΩ and holding current should remain above −100 pA. If either of these criteria was not respected (except holding current for recordings in GTPγS, see Supplementary Fig. 3D), the recording was not considered for analysis. On a given experimental day at least one control recording (i.e. without any peptide) was performed to ensure recording quality. All these recordings were pooled in the ‘control’ condition (n = 63 on 42 experimental days). […]
Supplementary Figure 5: Characteristics of the whole cell recordings in the different conditions of this study. A, Scheme of the equivalent electrical circuit of a cell recorded in the whole cell configuration. […]
This is likely due to the activation of GTP dependent trimeric G proteins which activate various channels in the presence of GTPγS, thereby increasing the holding current. […] F, Ratios of Cm recorded during the 10 th minute of recording over Cm recorded during the 1st minute. […]
A general note: The patch-clamp technique gives a direct electrical read-out from membranes.

Experiment [2] deals with T1, Ntr-bSUMO-amphSH3 complex (tetrameric, neutravidin) (Mus musculus, UniProt Q7TQF7).
T1 construct: murine Ampiphysin1 SH3 domain residues 607–686); made in house; host or cells: E. coli BL21 (DE3) co-expressing BirA, with biotin
T1 sequence (Q7TQF7 607-686): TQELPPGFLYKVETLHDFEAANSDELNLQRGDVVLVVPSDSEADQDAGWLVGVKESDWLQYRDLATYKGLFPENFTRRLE
T1 sequence (P02701 25-152 partner): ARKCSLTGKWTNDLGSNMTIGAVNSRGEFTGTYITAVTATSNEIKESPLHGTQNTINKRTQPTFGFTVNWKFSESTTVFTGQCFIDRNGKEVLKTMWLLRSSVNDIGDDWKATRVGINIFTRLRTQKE
In words: SPR, tetrameric Ntr-bSUMO-amphSH3 on immobilized peptides. The experiment is classed as binding, murine. Conditions: in the tested concentration range.

For `CC(=O)N[C@@H](Cc1ccc(O)cc1)C(=O)N[C@@H](CCCCn1cc(CCC(=O)NCCCOCCOCCOCCCNC(=O)CCC(=O)NCCCOCCOCCOCCCNC(=O)CCC(=O)NCCCOCCOCCOCCCNC(=O)CCC(=O)N2CCC[C@H]2C(=O)N2CCC[C@H]2C(=O)N2CCC[C@H]2C(=O)N[C@@H](CCC(N)=O)C(=O)N[C@H](C(=O)N2CCC[C@H]2C(=O)N[C@@H](CO)C(=O)N[C@@H](CCCNC(=N)N)C(=O)N2CCC[C@H]2C(=O)N[C@@H](CC(N)=O)C(=O)N[C@@H](CCCNC(=N)N)C(=O)N[C@@H](C)C(=O)N2CCC[C@H]2C(=O)N2CCC[C@H]2C(=O)NCC(N)=O)C(C)C)nn1)C(=O)NCCCOCCOCCOCCCNC(=O)CCC(=O)NCCCOCCOCCOCCCNC(=O)CCC(=O)NCCCOCCOCCOCCCNC(=O)CCC(=O)N1CCC[C@H]1C(=O)N1CCC[C@H]1C(=O)N1CCC[C@H]1C(=O)N[C@@H](CCC(N)=O)C(=O)N[C@H](C(=O)N1CCC[C@H]1C(=O)N[C@@H](CO)C(=O)N[C@@H](CCCNC(=N)N)C(=O)N1CCC[C@H]1C(=O)N[C@@H](CC(N)=O)C(=O)N[C@@H](CCCNC(=N)N)C(=O)N[C@@H](C)C(=O)N1CCC[C@H]1C(=O)N1CCC[C@H]1C(=O)NCC(N)=O)C(C)C` [dD15-N], the “change of Cm, Cm(10')/Cm(1')” value in experiment [1] is “no significant decrease in Cm”.
Consider “Ac-YPPPQVPSRPNRAPPG-NH2 [D15, reference compound]”, for which the “binding of Ntr-bSUMO-amphSH3” value in experiment [2] was “no binding was observed”.

The values above are taken from paper PMC6773865, “Functional recruitment of dynamin requires multimeric interactions for efficient endocytosis” (Nature Communications, 2019).
